Values of other authors as cited in patent US12697292B2, “Method for treating human hair with agents containing mixtures of organic C1-C6 alkoxy siloxanes” (Henkel AG & Co. KGaA, priority 2021, dated 2026).

Details: 25° C.

Structure (SMILES) | water solubility | solubility in water
CCN(Cc1cccc(S(=O)(=O)[O-])c1)c1ccc(C(=C2C=CC(=[N+](CC)Cc3cccc(S(=O)(=O)[O-])c3)C=C2)c2ccccc2S(=O)(=O)[O-])cc1.[Na+].[Na+] [Acid Blue 9] | more than 20 wt. % | 
O=S(=O)([O-])c1ccc(N=Nc2c(O)ccc3ccccc23)cc1.[Na+] [Acid Orange 7, sodium salt of 4-[(2-hydroxy-1-naphthyl)azo] benzene sulphonate] | more than 7 g/L | 
Nc1cc(S(=O)(=O)[O-])cc2cc(S(=O)(=O)[O-])c(N=Nc3ccccc3)c(O)c12.[Na+].[Na+] [Acid Red 33, dianhydro salt of 5-amino-4-hydroxy-3-(phenylazo)-naphthalene-2,7-disulfonate] | 2500 µg/mL | 
O=C([O-])C1=NN(c2ccc(S(=O)(=O)[O-])cc2)C(=O)C1N=Nc1ccc(S(=O)(=O)[O-])cc1.[Na+].[Na+].[Na+] (centres unmarked) [Acid Yellow 23, trisodium salt of 4,5-dihydro-5-oxo-1-(4-sulfophenyl)-4-((4-sulfophenyl)azo)-1H-pyrazole-3−carboxylic acid] |  | readily soluble
O=C([O-])c1c(Cl)c(Cl)c(Cl)c(Cl)c1-c1c2cc(Br)c(=O)c(Br)c-2oc2c(Br)c([O-])c(Br)cc12.[Na+].[Na+] [Acid Red 92, disodium salt of 3,4,5,6-tetrachloro-2-(1,4,5,8-tetrabromo-6-hydroxy-3-oxanthene-9-yl) benzoic acid] | greater than 10 g/L | 
